# From US5021435A, “Certain pyridyl-thiazolidin-4-one having anti-ulcer activity” (Sumitomo Pharmaceuticals Company, Limited, priority 1988, dated 1991)
# Like-named read-outs stand apart in the source and are kept apart here.
# Assays:
# [1] = system: water-immersion and restraint stress induced gastric ulcer; assay: Antiulcer test: water-immersion and restraint stress induced gastric ulcer model in rats; type: in vivo, Sprague-Dawley strain male rats; conditions: for inhibition in vivo at 100 mg/kg / inhibition in vivo at 50 mg/kg / inhibition in vivo at 30 mg/kg: Rattus norvegicus, po, 17 h, read-out: Effect (inhibitory percentage of ulcer formation, judgement); for inhibition in vivo at 100 mg/kg: 100 mg/kg oral; for inhibition of stress-induced ulcer (in words): discussion statement; for Test on anti-ulceration (ulcer caused by stress), Test (1): 100 mg/kg P.O.
# Method: Sprague-Dawley strain male rats (body weight: 200-250 g) fasted for 24 hours (with free access of water) were used for the test. (1) Antiulcer test Anticular effect of the compound was examined by means of water-immersion and restraint stress induced gastric ulcer model in rats. The ulcer experiment was performed in accordance with the method of Takagi and Okabe referred to hereinafter. Rats were immobilized in a restraint cage. The animals were then immersed vertically to the level of the xiphoid process in water bath (23° C.) for 17 hr and killed by deep ether anesthesia. The stomach of each rat was removed and inflated by injecting 10 ml of 1% formalin to fix the inner and outer layer of gastric wall. Subsequently, the stomach was incised along the greater curveture and the length of ulcers in glandular portion was measured. The sum of the length (mm) of each ulcer was used as an ulcer index. Test compound was suspended in 0.5% methylcellulose solution and was orally administered at a volume of 5 ml/kg to the rat 30 minutes prior to stress loading. To the control group was administered vehicle alone at the same volume. Inhibitory percentage of ulcer formation of the compound was calculated from the following formula. [formula]
# [2] = system: PAF-induced platelet aggregation; assay: Anti-PAF test in vitro (inhibitory action on PAF-induced platelet aggregation, PRP); type: cell-based, rabbit (male Japanese white rabbits); conditions: Oryctolagus cuniculus, rabbit PRP
# Method: The inhibition of PAF-induced platelet aggregation was examined by using a platelet-rich plasma (PRP) of rabbit according to the method of Mustard et al. [J. F. Mustard et al., J. Lab. Blin. Med., 64, 548 (1964)], which is an improved method of Born [G.V.R. Born, J. Physiol., London, 162, 67 (1962) ]. That is, 80-100 ml of blood per animal was collected from carotoid arteries of conscious male Japanese white rabbits into a polyethylene vessel containing 1/10 the volume of a 3.8% sodium citrate solution. A portion (about 3 ml) of the collected blood was centrifuged at a high speed (11,000 rpm) for 60 seconds to give a platelet-poor plasma (PPP) as supernatant. The remainder of the blood was centrifuged at a low speed (1000 rpm) for 10 minutes to give a platelet-rich plasma (PRP) as supernatant.
# The degree of platelet aggregation was determined by nephelometry with an aggregometer (Hematracer, Niko Biosciene Co.) while stirring the PRP at 1000 rpm at 37° C. The degree of platelet aggregation was expressed in terms of the light transmittance (%), the value of PRP being taken as 0% and the value of […]. A portion (0.2 ml) of the PRP was placed into a glass cuvette containing a silicone-coated stirring iron bar, and 2 μl of dimethylsulfoxide was added. After 2 minutes, PAF dissolved in physiological saline containing 0.25% BSA was added to give a final PAF concentration of […], and the maximum aggregation was determined. To measure the inhibitory activity of test compounds on the platelet aggregation induced by PAF, 2 μl of a dimethylsulfoxide solution of each test compound was added in place of dimethylsulfoxide. The inhibitory percentage by the test compound of PAF-induced platelet aggregation was calculated according to the following equation and the value of IC50 was determined. [formula]
# [3] = system: PAF-induced ulcer; assay: Test on PAF-induced ulcer; type: in vivo, Sprague-Dawley strain male rats; conditions: for Test on inhibition of PAF-induced ulcer, Test (3): rat, 100 mg/kg P.O. 30 minutes before PAF, effective = statistically significant vs control
# Method: (§1) Sprague-Dawley strain male rats (body weight: 200-250 g) fasted for 24 hours (with free access of water) were used for the test.
# (3) Test on PAF-induced ulcer
# Inhibitory effect of the compound on PAF-induced ulcer was examined. PAF-induced ulcer in rat was caused by intravenous administration of 10 μg/kg of PAF. One hour after PAF administration, rat was killed under deep ether anesthesia and stomach was removed. The stomach was inflated and fixed by injecting 10 ml of 1% formalin solution and then cut open along greater curvature. Areas (mm^2) of the ulcerated portions were measured and sum of them was taken as ulcer-index. Test compound was suspended in a 0.5% methylcellulose solution and orally administered at a volume of 5 ml/kg 30 minutes before the administration of PAF. Vehicle alone was administered to control rat at the same volume with test group. With reference to the effect of the compound to inhibit ulceration, results of treated group and those of control group were compared and those which have a statistical significance was judged to be effective.
# [4] = system: peripherally stimulated gastric acid secretion (histamine); assay: Gastric acid secretion stimulated peripherally by histamine; type: in vivo, Sprague-Dawley strain male rats; conditions: rat, 30 mg/kg into duodenum 2 hours before stimulant; histamine 10 mg/kg s.c.
# Method: as §1
# (§2) (2) Test on central acting inhibitory effect of gastric acid secretion
# (§3) Whether the antisecretory effect of the compound is based on central action or not was judged according to mode of antisecretory action of the compound to centrally stimulated gastric acid secretion and peripherally stimulated gastric acid secretion. […]
# (§4) We determined the site of action (central or peripheral) of the compound by the result from above examination. […]
# (§5) Gastric acid was collected every 20 min. by flushing the gastric lumen with 5 ml saline. The acid content of each sample was determined by titration of 0.02 N-NaOH.
# (§6) Peripheral stimulation of gastric acid secretion was carried out by subcutaneous administration of 10 mg/kg of histamine or 1 mg/kg of bethanechol. […] Inhibitory percentage of acid secretion of the compound was calculated from the following formula. […]
# [5] = system: centrally stimulated gastric acid secretion (baclofen); assay: Central acting inhibitory effect of gastric acid secretion: baclofen-stimulated (central); type: in vivo, Sprague-Dawley strain male rats; conditions: rat, 30 mg/kg into duodenum 2 hours before stimulant; baclofen 2 mg/kg s.c.
# Method: as §1, §2, §3, §4, §5, §6
# [6] = system: peripherally stimulated gastric acid secretion (bethanechol); assay: Gastric acid secretion stimulated peripherally by bethanechol; type: in vivo, Sprague-Dawley strain male rats; conditions: rat, 30 mg/kg into duodenum 2 hours before stimulant; bethanechol 1 mg/kg s.c.
# Method: as §1, §2, §3, §4, §5, §6
# [7] = system: PAF-induced ulcer; conditions: cited from earlier work
# [8] = rat, 30 minutes prior to stress
# [9] = rat, 50 mg/kg oral, 30 minutes prior to stress
smiles,measurement,setting,value
"COc1ccc(C2NC(=O)C(C)S2)cc1OC (stereo not drawn) [Mezolidon, 2-(3,4-dimethoxyphenyl)-5-methylthiazolidin-4-one, reference compound]",inhibition in vivo at 100 mg/kg,[1]; [8],< 40%
same,effect by the test method employed in the present invention,[1]; statement in words,nearly ineffective
CN1C(=O)[C@H](c2ccc(C(F)(F)F)cc2)S[C@@H]1c1cccnc1 (relative stereo) [Example 246],inhibition in vivo at 100 mg/kg,[1]; [8],60 to 80%
O=C1NC(c2cccnc2)SC1c1ccc(Cl)cc1 (stereo not drawn) [Example 178],inhibition in vivo at 100 mg/kg,[1]; [8],40 to 60%
"CN1C(=O)C(c2ccc(Cl)cc2)[S+]([O-])C1c1cccnc1 (single isomer, unassigned) [Example 31, 5-(4-chlorophenyl)-3-methyl-2-(3-pyridyl)-1-oxo-thiazolidin-4-one]","Effect (inhibitory percentage of ulcer formation, judgement)","[1]; rat, 50 mg/kg oral, 30 minutes prior to stress, 50 mg/kg",++ (Not less than 60% and less than 80%.)
CN1C(=O)C(c2ccc(Cl)cc2)SC1c1ccncc1 (stereo not drawn) [Example 46],inhibition in vivo at 50 mg/kg,[1]; [9],60 to 80%
"COc1cc([C@H]2CC[C@H](c3cc(OC)c(OC)c(OC)c3)O2)cc(OC)c1OC (relative stereo) [Example L-652731, trans2,5-bis(3,4,5-trimethoxyphenyl)tetrahydrofuran, reference compound]",IC50,[2],0.2 µg/mL
same,inhibition of PAF-induced ulcer (in words),[3]; discussion statement,remarkably inhibited
same,"Test on inhibition of PAF-induced ulcer, Test (3)",[3],Effective
same,inhibition of stress-induced ulcer (in words),[1],cannot be inhibited
same,"Test on anti-ulceration (ulcer caused by stress), Test (1)",[1]; rat,Ineffective
CN1C(=O)C(c2ccccc2)SC1c1cccnc1 (stereo not drawn) [Example 52],inhibition in vivo at 50 mg/kg,[1]; [9],40 to 60%
"CN1C(=O)C(c2ccc(Cl)cc2)SC1c1cccnc1 (single isomer, unassigned) [2 (Isomer II), 5-(4-Chlorophenyl)-3-methyl-2-(3-pyridyl)-thiazolidin-4-one]","Inhibitory percentage of acid secretion (judgement), stimulant histamine",[4],- (Less than 40%.)
same,inhibition in vivo at 50 mg/kg,[1]; [9],> 80%
same,"Inhibitory percentage of acid secretion (judgement), stimulant baclofen",[5],+++ (Not less than 80%.)
same,"Inhibitory percentage of acid secretion (judgement), stimulant bethanechol",[6],- (Less than 40%.)
"CN1C(=O)[C@@H](c2ccc(Cl)cc2)S[C@H]1c1cccnc1 (single isomer, unassigned) [Example 33, (+)-cis-5-(4-chlorophenyl)-3-methyl-2-(3-pyridyl)thiazolidin-4-one]",inhibition in vivo at 30 mg/kg,"[1]; rat, 30 mg/kg oral, 30 minutes prior to stress",> 80%
"CN1C(=O)[C@@H](c2ccc(Cl)cc2)S[C@H]1c1cccnc1 (single isomer, unassigned) [Example 34, (-)-cis-5-(4-chlorophenyl)-3-methyl-2-(3-pyridyl)thiazolidin-4-one]",inhibition in vivo at 100 mg/kg,[1]; [8],60 to 80%
"CN1C(=O)C(c2ccc(Cl)cc2)[S+]([O-])C1c1cccnc1 (single isomer, unassigned) [Example 30, 5-(4-chlorophenyl)-3-methyl-2-(3-pyridyl)-1-oxo-thiazolidin-4-one]",inhibition in vivo at 50 mg/kg,[1]; [9],40 to 60%
CN1C(=O)C(c2ccccc2F)SC1c1cccnc1 (stereo not drawn) [Example 198],inhibition in vivo at 100 mg/kg,[1]; [8],> 80%
CN1C(=O)C(c2ccccc2F)[S+]([O-])C1c1cccnc1 (stereo not drawn) [Example 199],inhibition in vivo at 100 mg/kg,[1]; [8],> 80%
COc1ccc(C2SC(c3cccnc3)N(C)C2=O)cc1 (stereo not drawn) [Example 48],inhibition in vivo at 50 mg/kg,[1]; [9],40 to 60%
CN1C(=O)C(c2ccc(F)cc2)SC1c1cccnc1 (stereo not drawn) [Example 42],IC50,[2],4 µg/mL
same,"Test on inhibition of PAF-induced ulcer, Test (3)",[3],Effective
same,inhibition in vivo at 50 mg/kg,[1]; [9],> 80%
same,"Test on anti-ulceration (ulcer caused by stress), Test (1)",[1]; rat,Effective
"CN/C(=N/CCSCc1nc[nH]c1C)NC#N [Cimetidine, reference compound]",inhibition of PAF-induced ulcer (in words),"[7]; discussion statement, Table 5 cites Nature 319, 54-56 (1986)",cannot be inhibited
same,Test on inhibition of PAF-induced ulcer,"[7]; table head 100 mg/kg P.O., (*) Nature 319, 54-56 (1986)",Ineffective
same,inhibition in vivo at 30 mg/kg,[1],60 to 80%
same,inhibition of stress-induced ulcer (in words),[1],can be inhibited
same,"Test on anti-ulceration (ulcer caused by stress), Test (1)",[1]; rat,Effective
"CN1C(=O)C(c2ccc(Cl)cc2)SC1c1cccnc1 (stereo not drawn) [Example 1, 5-(4-chlorophenyl)-3-methyl-2-(3-pyridyl)thiazolidin-4-one]",IC50,[2],5.8 µg/mL
same,"Test on inhibition of PAF-induced ulcer, Test (3)",[3],Effective
same,inhibition in vivo at 50 mg/kg,[1]; [9],60 to 80%
same,"Test on anti-ulceration (ulcer caused by stress), Test (1)",[1]; rat,Effective
CN1C(=O)[C@H](c2ccc(F)cc2)S[C@@H]1c1cccnc1 (relative stereo) [Example 221],inhibition in vivo at 100 mg/kg,[1]; [8],> 80%
